Experimental data as given in patent US11667649B2, “Heteroaromatic macrocyclic ether chemotherapeutic agents” (Nuvalent, Inc., priority 2020, dated 2023).

Test system: TPM3-NTRK1-wt IC50 / primary target (e.g. CD74-ROS1-wt) IC50, Ba/F3 cells
Test: Cell assay TRKA selectivity (TRKA potency divided by primary target potency)
Type: cell-based
Conditions: for TPM3-NTRK1-wt/CD74-ROS1-G2032R: TRKA selectivity ratio: TPM3-NTRK1-wt IC50 / CD74-ROS1-G2032R IC50, Ba/F3 cells; for TPM3-NTRK1-wt/CD74-ROS1-wt: TRKA selectivity ratio: TPM3-NTRK1-wt IC50 / CD74-ROS1-wt IC50, Ba/F3 cells; for TPM3-NTRK1-wt/EML4-ALK-L1196M-G1202R: TRKA selectivity ratio: TPM3-NTRK1-wt IC50 / EML4-ALK-L1196M-G1202R IC50, Ba/F3 cells; for TPM3-NTRK1-wt/EML4-ALK-wt: TRKA selectivity ratio: TPM3-NTRK1-wt IC50 / EML4-ALK-wt IC50, Ba/F3 cells
Procedure, shortened: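 Ratio of TRKA to primary-target cellular IC50 (e.g. TPM3-NTRK1-wt/CD74-ROS1-wt), grouped into bins A >30, B >10, C ≥1, D <1. Each IC50 came from engineered Ba/F3 fusion lines grown without IL-3, dosed for 72 h and read as CellTiter-Glo luminescence, with a four-parameter logistic fit.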

## CCn1nc(Cl)c2c1-c1cnc(N)c(c1)O[C@H](C)c1cc(F)ccc1-c1nn(C)cc1C2 [Example 73, (19R)-5-chloro-3-ethyl-16-fluoro-10,19-dimethyl-20-oxa-3,4,10,11,23-pentaazapentacyclo[19.3.1.0^2,^6.0^8,^12.0^13,^18]pentacosa-1(24),2(6),4,8,11,13,15,17,21(25),22-decaen-22-amine]
  TPM3-NTRK1-wt/CD74-ROS1-G2032R: A (bin A for very high selectivity, ratio>30-fold)
  TPM3-NTRK1-wt/CD74-ROS1-wt: A (bin A for very high selectivity, ratio>30-fold)
  TPM3-NTRK1-wt/EML4-ALK-L1196M-G1202R: B (bin B for high selectivity, ratio>10-fold)
  TPM3-NTRK1-wt/EML4-ALK-wt: A (bin A for very high selectivity, ratio>30-fold)

## CCn1ncc2c1-c1cnc(N)c(c1)OCc1cc(F)ccc1-c1nc(C)sc1C2 [Example 89, 3-ethyl-16-fluoro-10-methyl-20-oxa-9-thia-3,4,11,23-tetraazapentacyclo[19.3.1.0^2,^6.0^8,^12.0^13,^18]pentacosa-1(24),2(6),4,8(12),10,13,15,17,21(25),22-decaen-22-amine]
  TPM3-NTRK1-wt/CD74-ROS1-G2032R: A (bin A for very high selectivity, ratio>30-fold)
  TPM3-NTRK1-wt/CD74-ROS1-wt: A (bin A for very high selectivity, ratio>30-fold)
  TPM3-NTRK1-wt/EML4-ALK-L1196M-G1202R: B (bin B for high selectivity, ratio>10-fold)
  TPM3-NTRK1-wt/EML4-ALK-wt: A (bin A for very high selectivity, ratio>30-fold)

## CCn1ncc2c1-c1cnc(N)c(n1)OC(C)c1cc(F)ccc1-c1c(cnn1C)C2 (stereo not shown) [Example 164, 3-ethyl-16-fluoro-11,19-dimethyl-20-oxa-3,4,10,11,23,25-hexaazapentacyclo[19.3.1.0^2,^6.0^8,^12.0^13,^18]pentacosa-1(24),2(6),4,8(12),9,13,15,17,21(25),22-decaen-22-amine]
  TPM3-NTRK1-wt/CD74-ROS1-G2032R: A (bin A for very high selectivity, ratio>30-fold)
  TPM3-NTRK1-wt/EML4-ALK-L1196M-G1202R: C (bin C for moderate selectivity, ratio≥1)
  TPM3-NTRK1-wt/EML4-ALK-wt: B (bin B for high selectivity, ratio>10-fold)

## CCc1nn(CC)c2c1Cc1cn(C)nc1-c1ccc(F)cc1[C@@H](C)Oc1cc-2cnc1N [Example 158, (19R)-3,5-diethyl-16-fluoro-10,19-dimethyl-20-oxa-3,4,10,11,23-pentaazapentacyclo[19.3.1.0^2,^6.0^8,^12.0^13,^18]pentacosa-1(24),2(6),4,8,11,13,15,17,21(25),22-decaen-22-amine]
  TPM3-NTRK1-wt/CD74-ROS1-G2032R: A (bin A for very high selectivity, ratio>30-fold)
  TPM3-NTRK1-wt/CD74-ROS1-wt: A (bin A for very high selectivity, ratio>30-fold)
  TPM3-NTRK1-wt/EML4-ALK-L1196M-G1202R: C (bin C for moderate selectivity, ratio≥1)
  TPM3-NTRK1-wt/EML4-ALK-wt: A (bin A for very high selectivity, ratio>30-fold)

## C[C@H]1Oc2cc(cnc2N)-c2c(C#N)nn(C)c2Cc2cc(Cl)nn2-c2ccc(F)cc21 [Example 103, (19R)-22-amino-10-chloro-16-fluoro-5,19-dimethyl-20-oxa-4,5,11,12,23-pentaazapentacyclo[19.3.1.0^2,^6.0^8,^12.0^13,^18]pentacosa-1(24),2(6),3,8,10,13,15,17,21(25),22-decaene-3-carbonitrile]
  TPM3-NTRK1-wt/CD74-ROS1-G2032R: A (bin A for very high selectivity, ratio>30-fold)
  TPM3-NTRK1-wt/CD74-ROS1-wt: A (bin A for very high selectivity, ratio>30-fold)
  TPM3-NTRK1-wt/EML4-ALK-L1196M-G1202R: B (bin B for high selectivity, ratio>10-fold)
  TPM3-NTRK1-wt/EML4-ALK-wt: A (bin A for very high selectivity, ratio>30-fold)

## C[C@H]1Oc2cc(cnc2N)-c2c(nn(C)c2C#N)Cc2ccnn2-c2ccc(F)cc21 [Example 169, (19R)-22-amino-16-fluoro-4,19-dimethyl-20-oxa-4,5,11,12,23-pentaazapentacyclo[19.3.1.0^2,^6.0^8,^12.0^13,^18]pentacosa-1(24),2,5,8,10,13,15,17,21(25),22-decaene-3-carbonitrile]
  TPM3-NTRK1-wt/CD74-ROS1-G2032R: C (bin C for moderate selectivity, ratio≥1)
  TPM3-NTRK1-wt/CD74-ROS1-wt: A (bin A for very high selectivity, ratio>30-fold)
  TPM3-NTRK1-wt/EML4-ALK-L1196M-G1202R: D (bin D for low selectivity, ratio<1)
  TPM3-NTRK1-wt/EML4-ALK-wt: A (bin A for very high selectivity, ratio>30-fold)

## CCc1nnn2c1-c1cnc(N)c(c1)O[C@H](C)c1cc(F)ccc1-c1nn(C)cc1C2 [Example 23, (19R)-3-ethyl-16-fluoro-10,19-dimethyl-20-oxa-4,5,6,10,11,23-hexaazapentacyclo[19.3.1.0^2,^6.0^8,^12.0^13,^18]pentacosa-1(24),2,4,8,11,13,15,17,21(25),22-decaen-22-amine]
  TPM3-NTRK1-wt/CD74-ROS1-G2032R: A (bin A for very high selectivity, ratio>30-fold)
  TPM3-NTRK1-wt/CD74-ROS1-wt: A (bin A for very high selectivity, ratio>30-fold)
  TPM3-NTRK1-wt/EML4-ALK-L1196M-G1202R: C (bin C for moderate selectivity, ratio≥1)
  TPM3-NTRK1-wt/EML4-ALK-wt: A (bin A for very high selectivity, ratio>30-fold)

## CCn1ncc2c1-c1cnc(N)c(c1)O[C@H](C)c1cc(F)ccc1-n1ncc(F)c1C2 [Example 46, (19R)-3-ethyl-9,16-difluoro-19-methyl-20-oxa-3,4,11,12,23-pentaazapentacyclo[19.3.1.0^2,^6.0^8,^12.0^13,^18]pentacosa-1(24),2(6),4,8,10,13,15,17,21(25),22-decaen-22-amine]
  TPM3-NTRK1-wt/CD74-ROS1-G2032R: A (bin A for very high selectivity, ratio>30-fold)
  TPM3-NTRK1-wt/CD74-ROS1-wt: A (bin A for very high selectivity, ratio>30-fold)
  TPM3-NTRK1-wt/EML4-ALK-L1196M-G1202R: C (bin C for moderate selectivity, ratio≥1)
  TPM3-NTRK1-wt/EML4-ALK-wt: A (bin A for very high selectivity, ratio>30-fold)

## CCn1ncc2c1-c1cnc(N)c(c1)OCc1cc(F)ccc1-n1nc(C(F)(F)F)cc1C2 [Example 92, 3-ethyl-16-fluoro-10-(trifluoromethyl)-20-oxa-3,4,11,12,23-pentaazapentacyclo[19.3.1.0^2,^6.0^8,^12.0^13,^18]pentacosa-1(24),2(6),4,8,10,13,15,17,21(25),22-decaen-22-amine]
  TPM3-NTRK1-wt/CD74-ROS1-G2032R: A (bin A for very high selectivity, ratio>30-fold)
  TPM3-NTRK1-wt/CD74-ROS1-wt: A (bin A for very high selectivity, ratio>30-fold)
  TPM3-NTRK1-wt/EML4-ALK-L1196M-G1202R: C (bin C for moderate selectivity, ratio≥1)
  TPM3-NTRK1-wt/EML4-ALK-wt: C (bin C for moderate selectivity, ratio≥1)

## CCc1c(C#N)nn2c1-c1cnc(N)c(c1)O[C@H](C)c1cc(F)ccc1-c1nn(C)cc1C2 [Example 6, (19R)-22-amino-3-ethyl-16-fluoro-10,19-dimethyl-20-oxa-5,6,10,11,23-pentaazapentacyclo[19.3.1.0^2,^6.0^8,^12.0^13,^18]pentacosa-1(24),2,4,8,11,13,15,17,21(25),22-decaene-4-carbonitrile]
  TPM3-NTRK1-wt/CD74-ROS1-G2032R: A (bin A for very high selectivity, ratio>30-fold)
  TPM3-NTRK1-wt/CD74-ROS1-wt: A (bin A for very high selectivity, ratio>30-fold)
  TPM3-NTRK1-wt/EML4-ALK-L1196M-G1202R: C (bin C for moderate selectivity, ratio≥1)
  TPM3-NTRK1-wt/EML4-ALK-wt: A (bin A for very high selectivity, ratio>30-fold)

## CCn1ncc2c1-c1cnc(N)c(c1)O[C@H](C)c1cc(F)ccc1-c1nc(OC)ccc1C2 [Example 145, (20R)-3-ethyl-17-fluoro-11-methoxy-20-methyl-21-oxa-3,4,12,24-tetraazapentacyclo[20.3.1.0^2,^6.0^8,^13.0^14,^19]hexacosa-1(25),2(6),4,8(13),9,11,14,16,18,22(26),23-undecaen-23-amine]
  TPM3-NTRK1-wt/CD74-ROS1-G2032R: A (bin A for very high selectivity, ratio>30-fold)
  TPM3-NTRK1-wt/CD74-ROS1-wt: A (bin A for very high selectivity, ratio>30-fold)
  TPM3-NTRK1-wt/EML4-ALK-L1196M-G1202R: C (bin C for moderate selectivity, ratio≥1)
  TPM3-NTRK1-wt/EML4-ALK-wt: A (bin A for very high selectivity, ratio>30-fold)

## Cc1nc2c(s1)Cc1c(c(C#N)nn1C)-c1cnc(N)c(c1)OCc1cc(F)ccc1-2 [Example 115, 22-amino-16-fluoro-5,10-dimethyl-20-oxa-9-thia-4,5,11,23-tetraazapentacyclo[19.3.1.0^2,^6.0^8,^12.0^13,^18]pentacosa-1(24),2(6),3,8(12),10,13,15,17,21(25),22-decaene-3-carbonitrile]
  TPM3-NTRK1-wt/CD74-ROS1-G2032R: A (bin A for very high selectivity, ratio>30-fold)
  TPM3-NTRK1-wt/CD74-ROS1-wt: A (bin A for very high selectivity, ratio>30-fold)
  TPM3-NTRK1-wt/EML4-ALK-L1196M-G1202R: B (bin B for high selectivity, ratio>10-fold)
  TPM3-NTRK1-wt/EML4-ALK-wt: A (bin A for very high selectivity, ratio>30-fold)

## Cc1nc2c(s1)Cc1nnn(CC3CC3)c1-c1cnc(N)c(c1)O[C@H](C)c1cc(F)ccc1-2 [Example 114, (19R)-3-(cyclopropylmethyl)-16-fluoro-10,19-dimethyl-20-oxa-9-thia-3,4,5,11,23-pentaazapentacyclo[19.3.1.0^2,^6.0^8,^12.0^13,^18]pentacosa-1(24),2(6),4,8(12),10,13,15,17,21(25),22-decaen-22-amine]
  TPM3-NTRK1-wt/CD74-ROS1-G2032R: A (bin A for very high selectivity, ratio>30-fold)
  TPM3-NTRK1-wt/CD74-ROS1-wt: A (bin A for very high selectivity, ratio>30-fold)
  TPM3-NTRK1-wt/EML4-ALK-L1196M-G1202R: A (bin A for very high selectivity, ratio>30-fold)
  TPM3-NTRK1-wt/EML4-ALK-wt: A (bin A for very high selectivity, ratio>30-fold)

## C[C@H]1Oc2cc(cnc2N)-c2c(nn(C)c2C#N)Cc2cccnc2-c2ccc(F)cc21 [Example 112, (20R)-23-amino-17-fluoro-4,20-dimethyl-21-oxa-4,5,12,24-tetraazapentacyclo[20.3.1.0^2,^6.0^8,^13.0^14,^19]hexacosa-1(25),2,5,8(13),9,11,14,16,18,22(26),23-undecaene-3-carbonitrile]
  TPM3-NTRK1-wt/CD74-ROS1-G2032R: C (bin C for moderate selectivity, ratio≥1)
  TPM3-NTRK1-wt/CD74-ROS1-wt: A (bin A for very high selectivity, ratio>30-fold)
  TPM3-NTRK1-wt/EML4-ALK-L1196M-G1202R: D (bin D for low selectivity, ratio<1)
  TPM3-NTRK1-wt/EML4-ALK-wt: A (bin A for very high selectivity, ratio>30-fold)
